Results published in patent US20230131899A1, “INHIBITORS OF MICROBIALLY INDUCED AMYLOID” (Axial Therapeutics, Inc., priority 2020, published 2023).
Read-outs that look alike come from different tables or passages of the source.

Legend:
E. coli CsgA = target: T1, E. coli CsgA (Escherichia coli, UniProt P28307); experiment: In vitro ThioflavinT assay of CsgA aggregation (CsgA ThT Assay); format: biochemical; details: for remaining activity at 100 µM: compound 100 μM
T1 construct: made in house; host or cells: E. coli NEB 3016 slyD::kan, pET11d
T1 sequence (P28307 23-151): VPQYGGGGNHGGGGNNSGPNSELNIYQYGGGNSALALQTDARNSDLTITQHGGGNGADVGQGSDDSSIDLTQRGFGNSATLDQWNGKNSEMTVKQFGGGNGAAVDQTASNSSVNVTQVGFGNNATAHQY
Procedure, shortened: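 Purified C-terminal His-tagged CsgA, monomerised by desalting and 30-kDa filtration, at 2-20 μM with 20-40 μM ThT in 50 mM potassium phosphate pH 7.3, 1% DMSO, compounds 3.125-200 uM; room temperature, fluorescence (ex 438/em 495 nm) read every 15 min. Background-subtracted signal expressed as percent inhibition versus vehicle at 6-6.5 or 8-9 h, or as percent control AUC.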

human α-synuclein = target: T2, human α-synuclein (Homo sapiens, UniProt P37840); experiment: Cell-free Thioflavin T assay of α-synuclein aggregation (αSyn ThT Assay); format: biochemical; details: αSyn 50 μM
T2 construct: the full-length gene for untagged human α-synuclein was inserted; made in house; host or cells: E. coli BL21(DE3), plasmid derived from pT7 or pET11a
Description: To assess the effects of compounds on aggregation of α-synuclein, a cell-free assay was performed using purified α-synuclein and Thioflavin T. In the assay, human α-synuclein was expressed in E. coli BL21(DE3) from a plasmid derived from pT7 or pET11a into which the full-length gene for untagged human α-synuclein was inserted. Cells were induced at OD600 0.6 with 0.8 mM IPTG for 4 hours, harvested by centrifugation and suspended in a volume of lysis buffer (10 mM Tris, pH 8.0, 1 mM EDTA, and 1 mM PMSF) equivalent to one-tenth the volume of culture and lysed by boiling for 20 minutes. Cell debris was pelleted by centrifugation, clarified lysate was treated with 10% streptomycin sulfate at 136 μL/mL followed by glacial acetic acid at 228 μL/mL, lysate was centrifuged, supernatant was transferred to a fresh tube and protein was precipitated via addition of an equal volume of saturated (100%) ammonium sulfate and incubated at 4° C. on a rocking shaker for 1 hour. The protein was pelleted via centrifugation and washed with an equal volume of 100 mM ammonium acetate in chilled ethanol, pelleted via centrifugation, washed twice with chilled ethanol, dried overnight, resuspended in 50 mM potassium phosphate buffer pH 7.3 or 10 mM Tris pH 7.4, and passed through a 50 kDa cut-off column. Immediately prior to use, the purified α-synuclein was filtered with a 0.2 μm nylon filter. The assay was conducted in 96-well black microplates with a single 1-2 mm glass bead in each well, 20-40 μM ThioflavinT, 1% DMSO, α-synuclein at 50 μM and compounds at 20-100 μM. Plates were sealed with sealing tape (ThermoFisher 232701), incubated at 37° C. in a Tecan Nano F200 plate reader with excitation at 438 nm using a 439 nm filter with a bandwidth of 8 nm, and emission at 495 nm with a 490 nm filter with a bandwidth of 10 nm. During the assay, plates were shaken continuously or were shaken for 999 seconds every 18 minutes. Readings were performed hourly for up to 73 hours. The effect of compounds on α-synuclein aggregation in the assay was determined with data at 36, 47, 48 or 72 hours or from the final timepoint of the assay, prior to or roughly near the time when ThT fluorescence plateaued in the vehicle control wells. The vehicle controls contained all components of the assay except compounds and represented the level of α-synuclein aggregation in the absence of an inhibitor or accelerator. Fluorescence values for each compound with α-synuclein were first adjusted by subtracting the average fluorescence of the compound in the absence of α-synuclein. These adjusted values were normalized by dividing them by the average fluorescence at the same timepoint in the vehicle control wells, and the average normalized fluorescence with the compound was expressed as a percentage of the average fluorescence observed in untreated controls. Percent inhibition of α-synuclein aggregation by a compound was determined by subtracting the percent average fluorescence with the compound relative to the average vehicle control from 100%. A higher positive percent inhibition reflects greater inhibition of α-synuclein aggregation, while a negative percent inhibition reflects potentiation of α-synuclein aggregation.
Alternate concentrations of Thioflavin T may be used in the assay and may affect the fluorescent signal and sensitivity of the assay. Alternate concentrations of α-synuclein may be used and such alterations may affect aggregation kinetics of α-synuclein in the assay. Alternate concentrations of compounds may be tested in the assay, and dose-responses may be evaluated. Additional reagents may be added to the assay which may affect aggregation kinetics of α-synuclein depending on their concentration, including detergents such as sodium dodecyl sulfate, sodium chloride, dithiotreitol, or bovine serum albumin. Shaking may be included at alternate intervals in the assay and may affect α-synuclein aggregation kinetics. […]

[1] = read-out: CsgA ThT Assay (10 μM CsgA) % Control AUC at 1005 minutes, 25 μM (activity range), CsgA 10 μM, black plates, compound 25 μM, 1005 minutes, class symbol
[2] = read-out: CsgA ThT Assay (10 μM CsgA) % Control AUC at 1005 minutes, 25 μM, mean AUC as % of DMSO control, CsgA 10 μM, black plates, compound 25 μM, 1005 minutes
[3] = read-out: CsgA ThT Assay (10 μM CsgA) % Control AUC at 1005 minutes, 100 μM (activity range), CsgA 10 μM, black plates, 1005 minutes, class symbol
[4] = read-out: CsgA ThT Assay (10 μM CsgA) % Control AUC at 1005 minutes, 100 μM, mean AUC as % of DMSO control, CsgA 10 μM, black plates, 1005 minutes
[5] = mean % inhibition of αSyn aggregation relative to DMSO control, compounds at 100 μM, read-out: αSyn ThT Assay % Inhibition
[6] = compounds at 100 μM, class symbol, read-out: αSyn ThT Assay % Inhibition (activity range)
[7] = read-out: CsgA ThT Assay (2 μM CsgA) % Control Bmax 25 μM, activity range, class symbol, CsgA 2 μM, white plates, compound 25 μM
[8] = read-out: CsgA ThT Assay (2 μM CsgA) % Control Bmax 25 μM, mean Bmax as percentage of DMSO control, CsgA 2 μM, white plates, compound 25 μM
[9] = read-out: CsgA ThT Assay (2 μM CsgA) % Control Bmax 100 μM, activity range, class symbol, CsgA 2 μM, white plates
[10] = read-out: CsgA ThT Assay (2 μM CsgA) % Control Bmax 100 μM, mean Bmax as percentage of DMSO control, CsgA 2 μM, white plates
[11] = class symbol, compounds 100 μM, read-out: αSyn ThT Assay % inhibition, activity range
[12] = mean percent inhibition relative to DMSO control, compounds 100 μM, read-out: αSyn ThT Assay % inhibition

| Compound | remaining activity at 25 µM (E. coli CsgA; [1]) [%] | remaining activity at 25 µM (E. coli CsgA; [2]) [%] | remaining activity at 100 µM (E. coli CsgA; [3]) [%] | remaining activity at 100 µM (E. coli CsgA; [4]) [%] | inhibition at 100 µM (human α-synuclein; [5]) [%] | inhibition at 100 µM (human α-synuclein; [6]) [%] | remaining activity at 25 µM (E. coli CsgA; [7]) [%] | remaining activity at 25 µM (E. coli CsgA; [8]) [%] | remaining activity at 100 µM (E. coli CsgA; [9]) [%] | remaining activity at 100 µM (E. coli CsgA; [10]) [%] | inhibition at 100 µM (human α-synuclein; [11]) [%] | inhibition at 100 µM (human α-synuclein; [12]) [%] | CsgA ThT Assay (10 μM CsgA) % Control AUC at 1005 minutes, 25 μM (activity range) (E. coli CsgA; CsgA 10 μM, black plates, compound 25 μM, 1005 minutes, class symbol) | CsgA ThT Assay (10 μM CsgA) % Control AUC at 1005 minutes, 25 μM (E. coli CsgA; mean AUC as % of DMSO control, CsgA 10 μM, black plates, compound 25 μM, 1005 minutes) [%] |
| --- | --- | --- | --- | --- | --- | --- | --- | --- | --- | --- | --- | --- | --- | --- |
| CN1CC(C(=O)O)n2c(c(-c3cccc(C(F)(F)F)c3)c(Cc3ccc(N)c4ccccc34)cc2=O)S1(=O)=O (stereo not shown) [Compound 040] | > 60 | 78 | < 10 | 8 | 61 | > 60 | – | – | – | – | – | – | – | – |
| CCCN1CC(C(=O)O)n2c(c(-c3cccc(C(F)(F)F)c3)c(Cc3cccc4ccccc34)c(N3CCCC3=O)c2=O)S1(=O)=O (stereo not shown) [Compound 151, 8-(naphthalen-1-ylmethyl)-6-oxo-7-(2-oxopyrrolidin-1-yl)-2-propyl-9-(3-(trifluoromethyl)phenyl)-3,4-dihydro-2H,6H-pyrido[1,2-e][1,2,5]thiadiazine-4-carboxylic acid 1,1-dioxide] | – | – | – | – | – | – | > 60 | 67 | > 60 | 73 | > 60 | 61 | – | – |
| O=C(O)C1CNS(=O)(=O)c2c(-c3cccc(C(F)(F)F)c3)c(Cc3cccc4ccccc34)c(NC3CCCC3)c(=O)n21 (stereo not shown) [Compound 005, 7-(cyclopentylamino)-8-(naphthalen-1-ylmethyl)-6-oxo-9-(3-(trifluoromethyl)phenyl)-3,4-dihydro-2H,6H-pyrido[1,2-e][1,2,5]thiadiazine-4-carboxylic acid 1,1-dioxide] | – | – | – | – | – | – | > 60 | 66 | 11 to 31 | 20 | 31 to 60 | 48 | – | – |
| Nc1c(Cc2cccc3ccccc23)c(-c2cccc(C(F)(F)F)c2)c2scc(C(=O)O)n2c1=O [Compound 050, 6-amino-7-(naphthalen-1-ylmethyl)-5-oxo-8-(3-(trifluoromethyl)phenyl)-5H-thiazolo[3,2-a]pyridine-3-carboxylic acid] | 31 to 60 | 36 | 11 to 31 | 22 | 49 | 31 to 60 | – | – | – | – | – | – | – | – |
| CCCN1CC(C(=O)O)n2c(c(-c3cccc(C(F)(F)F)c3)c(Cc3cccc4ccccc34)c(OC3CCCC3)c2=O)S1(=O)=O (stereo not shown) [Compound 144, 7-(cyclopentyloxy)-8-(naphthalen-1-ylmethyl)-6-oxo-2-propyl-9-(3-(trifluoromethyl)phenyl)-3,4-dihydro-2H,6H-pyrido[1,2-e][1,2,5]thiadiazine-4-carboxylic acid 1,1-dioxide] | – | – | – | – | – | – | > 60 | 77 | – | – | 11 to 30 | 29 | – | – |
| CC(C)NC(=O)c1c(Cc2cccc3ccccc23)c(-c2cccc(C(F)(F)F)c2)c2n(c1=O)C(C(=O)O)CN(C)S2(=O)=O (stereo not shown) [Compound 157, 7-(isopropylcarbamoyl)-2-methyl-8-(naphthalen-1-ylmethyl)-6-oxo-9-(3-(trifluoromethyl)phenyl)-3,4-dihydro-2H,6H-pyrido[1,2-e][1,2,5]thiadiazine-4-carboxylic acid 1,1-dioxide] | – | – | – | – | – | – | > 60 | 81 | > 60 | 124 | > 60 | 83 | – | – |
| CC(=O)Nc1ccc(Cc2cc(=O)n3c(c2-c2cccc(C(F)(F)F)c2)S(=O)(=O)N(C)CC3C(=O)O)c2ccccc12 (stereo not shown) [Compound 048] | > 60 | 90 | > 60 | 61 | 18 | 11 to 30 | – | – | – | – | – | – | – | – |
| O=C(O)c1csc2c(-c3cccc(C(F)(F)F)c3)c(Cc3cccc4ccccc34)cc(=O)n12 [Compound 019, 7-(naphthalen-1-ylmethyl)-5-oxo-8-(3-(trifluoromethyl)phenyl)-5H-thiazolo[3,2-a]pyridine-3-carboxylic acid] | > 60 | 69 | > 60 | 104 | 41 | 31 to 60 | – | – | – | – | – | – | – | – |
| COc1cccc(CN2CC(C(=O)O)n3c2c(-c2cccc(C(F)(F)F)c2)c(Cc2cccc4ccccc24)c(Cl)c3=O)c1 (stereo not shown) [Compound 191, 6-chloro-1-(3-methoxybenzyl)-7-(naphthalen-1-ylmethyl)-5-oxo-8-(3-(trifluoromethyl)phenyl)-1,2,3,5-tetrahydroimidazo[1,2-a]pyridine-3-carboxylic acid] | – | – | – | – | – | – | 31 to 60 | 58 | 31 to 60 | 43 | 31 to 60 | 55 | – | – |
| O=C(O)C1CS(=O)(=O)c2c(-c3cccc(C(F)(F)F)c3)c(Cc3cccc4ccccc34)cc(=S)n21 (single isomer, unassigned) [Compound 014a, 7-(naphthalen-1-ylmethyl)-5-thioxo-8-(3-(trifluoromethyl)phenyl)-2,3-dihydro-5H-thiazolo[3,2-a]pyridine-3-carboxylic acid 1,1-dioxide] | – | – | 11 to 31 | 29 | 68 | > 60 | – | – | – | – | – | – | (++) (% control AUC of 31 to 60%) | 37 |
